The text below walks through data of patent US20070218004A1, “Method of Identifying Therapeutic Compounds Which Can Be Used for the Treatment and/or Prevention of Infections and Diseases Caused by Human Herpesviruses” (priority 2005, published 2007).

Read-outs that look alike come from different tables or passages of the source.

The conditions of data set [1]: rats; cited from earlier work.
The conditions of data set [2]: mice; cited from earlier work.
For data set [3], the system named is herpes simplex virus type 1 (HSV-1) of the KOS strain. The class given is in vivo, mice of the C57B1/6 lineage. How it is done: All the animals included in the experimental process were 14-week old female mice of the C57B1/6 lineage. Between two and three adult mice were used per analysis group and between 13 and 25 neonates, depending on the availability of animals. […] All the animals went through a quarantine period and were treated with strict precautions against contamination during inoculation and dissection. The animals were intraperitoneally infected with a dose 10^6 pfu of herpes simplex virus type 1 (HSV-1) of the KOS strain (provided by el Dr. L. Carrasco, Centro de Biología Molecular Severo Ochoa, Universidad Autónoma of Madrid). […] The first group of mice was not given any treatment. […] Therefore the antiviral concentration administered per dose and mouse was 0.25 mg (10 mg/kg per mouse, far from the toxicity limit of 80 mg/kg cited above), with a total daily dose of 0.75 mg/day.
The dissected organs in the adult animals were the following: blood, ovaries, adrenal gland, spinal cord, brain, cerebellum and trigeminal ganglia. The entire brain was separated into three rough regions: midbrain, ventricles and cerebral cortex. In the neonates, the dissected organs were blood, spinal cord and encephalon. DNA was extracted using conventional methods (NucleoSpin®, Cat. K3053-2, ClonTech, USA). The viral load of the different organs was analyzed by means of quantitative PCR. […] Primers specific for the sequence of the viral polymerase (pol) gene were used to detect the virus (SEQ. ID. NO: 3 and SEQ. ID. NO: 4) (120 bp amplicon). The PCR conditions were one cycle of 95° C. for 10 minutes, followed by 45 cycles at 95° C. for 30 seconds, 55° C. (for β-actin) or 60° C. (for viral polymerase) for 30 seconds, and a last cycle of 72° C. for 40 seconds. The virus concentration range used for optimizing the quantitative PCR standard curve was expressed as plaque forming units (pfu). For calibrating the β-actin gene, nanograms were used as the unit of this endogenous gene. The identity of the amplified products was checked by analysis of the denaturation curves, by gel electrophoresis and restriction analysis.

For data set [4] the following is noted: rabbits; cited from earlier work.
Data set [5] has as its system HSV-1. Description: Acyclovir ad libitum in drink, vertical mother-progeny transmission model (Example 3). Conditions: acyclovir in drinking water ad libitum, high dose (final daily dose 1.50 mg), from the day of the vaginal plug. The class given is in vivo, mice. How it is done: Assuming that a mouse drinks about 3 ml a day, 2 working dilutions ([…] so that the final daily dose was 0.75 mg, and […] so that the final daily dose was 1.50 mg) were used.

In the case of `Nc1nc2c(ncn2COCCO)c(=O)[nH]1` [acyclovir], the teratogenicity / embryotoxicity entry in data set [1], in data set [2] and in data set [4] was “non-teratogenic or embryotoxic” each time. In data set [3] (daily dose of 0.75 mg, both administration routes (oral and subcutaneous), FIG. 7), the “viral loads both in the mothers and in the progeny (quantitative PCR)” value is reported as “significant reduction”. The “viral levels in all the analyzed organs of the descendants” value in data set [3] (oral acyclovir administered to the mothers, 0.75 mg/day) was “almost complete elimination”. Moreover, in data set [3] (oral acyclovir to infected mothers, 0.25 mg per dose three times a day (0.75 mg/day), none of the 17 animals), the mortality of neonates result is “no mortality”. Also, the “virus levels in blood and in the trigeminal ganglia of the mothers” value in data set [3] (oral acyclovir, 0.75 mg/day) is “virtually undetectable”. The “mortality rate of neonates” value in data set [3] (subcutaneous acyclovir to infected mothers, 0.25 mg per dose three times a day (0.75 mg/day), from five days before crossbreeding until birth, 1 out of 25) is 4.0%. In addition, the “levels of the virus in all the analyzed organs of the mother and in the progeny's CNS” value in data set [3] (subcutaneous acyclovir, 0.75 mg/day) was “considerably lower levels”. Besides, in data set [5], the “survival of the animals” value is reported as “higher”.
